Data from patent EP4745153A1, “GLP-1, GIP AND GCG RECEPTOR […] USE THEREOF” (Jiangsu Hengrui Pharmaceuticals Co., Ltd., priority 2023, dated 2025).
Read-outs that look alike come from different tables or passages of the source. Starred links: 1 amine or outer side, 2 acyl side, 3 side chain; linkers in the order of their positions; H or OH if unused. Non-standard residues stand in square brackets, D forms with d. Residues, ends and D or L forms follow the SMILES beside them. Groups on a side chain read outwards from the residue. *: point of attachment. C20 diacid = O=C(O)CCCCCCCCCCCCCCCCCCC(=O)*; γGlu = O=C(O)[C@H](CCC(=O)[*:2])N[*:1]; αMeK = C[C@](N)(CCCCN)C(=O)O; AEEA = NCCOCCOCC(=O)O; Aib = CC(C)(N)C(=O)O

How the values were obtained:
human GIPR = biological target: T1, human GIPR (Homo sapiens, UniProt P48546); experiment: cAMP HTRF agonist activity assay in CHO-K1 cells expressing GIPR; type: cell-based; conditions: read-out: Activity against human GIPR (EC50 nM); further: 5% FBS, 0.1% Casein
T1 construct: expressed in transfected cells; host or cells: CHO-K1 clonal cell line
T1 sequence (P48546 22-466): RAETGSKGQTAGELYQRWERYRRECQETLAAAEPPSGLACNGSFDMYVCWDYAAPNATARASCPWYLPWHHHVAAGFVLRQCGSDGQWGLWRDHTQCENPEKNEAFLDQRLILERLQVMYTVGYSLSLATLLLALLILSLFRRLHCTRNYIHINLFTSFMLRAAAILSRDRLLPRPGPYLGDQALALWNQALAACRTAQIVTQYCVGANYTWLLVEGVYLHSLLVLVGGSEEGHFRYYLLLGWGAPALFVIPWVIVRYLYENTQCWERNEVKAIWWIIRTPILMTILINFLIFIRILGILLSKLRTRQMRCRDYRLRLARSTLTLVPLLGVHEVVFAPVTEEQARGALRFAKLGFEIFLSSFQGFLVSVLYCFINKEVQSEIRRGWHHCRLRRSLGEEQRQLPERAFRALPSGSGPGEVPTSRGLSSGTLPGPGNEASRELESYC
Summary of the method: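 cAMP accumulation measured by competitive HTRF after 30 min incubation of polypeptides with 5000 receptor-expressing CHO-K1 cells/well at 37°C. Percent of maximal response versus concentration fitted to a four-parameter logistic to give relative EC50.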

human GCGR = biological target: T2, human GCGR (Homo sapiens, UniProt P47871); experiment: cAMP HTRF agonist activity assay in CHO-K1 cells expressing GCGR; type: cell-based; on Activity against human GCGR (EC50 nM): 5% FBS, 0.1% Casein
T2 construct: expressed in transfected cells; host or cells: CHO-K1 clonal cell line
Protocol: Functional activity was determined in CHO-K1 clonal cell lines expressing GIPR, GLP-1R, and GCGR. […] Each recipient cell (5000 cells/well) was added to an SV 96-well plate (Cisbio, 66PL96025) and incubated with the prepared polypeptide at 37°Cfor 30 min. The resulting increase in intracellular cAMP was quantitatively measured using the cAMP-GS dynamic HTRF assay kit (Cisbio, 62AM4PEJ). Briefly, the intracellular cAMP levels were determined by adding cAMP-d2 conjugate in cell lysis buffer, followed by the antibody anti-cAMP-Eu cryptate (also in cell lysis buffer).
Using the maximum response percentage vs. the added polypeptide concentration, the relative EC50 values were derived through nonlinear regression analysis and fitted to a four-parameter logarithmic equation. For specific data, refer to Tables 7-1 to 7-8 below. […]

[1] = Pharmacokinetics in mice after single intravenous injection; set-up: species or system C57 mice; conditions: mouse, in vivo, male C57 mice, single intravenous dose 200 nmol/kg, plasma
Summary of the method: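 Plasma concentrations were measured by positive-mode ESI LC-MS/MRM, with verapamil as internal standard, at time points from 5 min to 72 h. Samples came from three male C57 mice per compound, aged 4-6 weeks, dosed once intravenously with 200 nmol/kg in 1×PBS; PK parameters were derived with PKSolver.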

[2] = read-out: Activity against human GCGR (EC50 nM)

T2 sequence (P47871 26-477): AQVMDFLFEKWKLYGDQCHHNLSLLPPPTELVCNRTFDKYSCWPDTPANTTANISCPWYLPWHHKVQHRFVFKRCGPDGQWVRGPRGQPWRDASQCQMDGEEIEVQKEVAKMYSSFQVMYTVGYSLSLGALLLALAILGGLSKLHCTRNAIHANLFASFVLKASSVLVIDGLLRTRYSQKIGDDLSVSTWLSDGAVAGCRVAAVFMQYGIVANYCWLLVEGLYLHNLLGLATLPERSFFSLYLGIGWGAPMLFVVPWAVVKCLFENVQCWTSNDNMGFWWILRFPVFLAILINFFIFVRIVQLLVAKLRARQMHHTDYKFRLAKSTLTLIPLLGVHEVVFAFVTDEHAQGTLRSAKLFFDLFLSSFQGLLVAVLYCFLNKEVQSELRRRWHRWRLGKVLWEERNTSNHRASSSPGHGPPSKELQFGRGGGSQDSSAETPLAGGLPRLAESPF

SMILES | EC50 (human GIPR) [nM] | EC50 (human GCGR; [2]) [nM] | AUC(0-inf) [1] [µM·h] | C0 [1] [µM] | clearance ([1]; read-out: CLp) [mL/min/kg] | half-life ([1]; read-out: T1/2 (converted)) [min] | EC50 (human GCGR) [nM]
CC[C@H](C)[C@H](NC(=O)[C@H](CO)NC(=O)[C@H](Cc1ccc(O)cc1)NC(=O)[C@H](CC(=O)O)NC(=O)[C@H](CO)NC(=O)[C@@H](NC(=O)[C@H](Cc1ccccc1)NC(=O)[C@@H](NC(=O)CNC(=O)[C@H](Cc1c[nH]cn1)NC(=O)C(C)(C)NC(=O)[C@@H](N)Cc1c[nH]cn1)[C@@H](C)O)[C@@H](C)O)C(=O)N[C@@H](CC(C)C)C(=O)N[C@@H](CC(C)C)C(=O)N[C@@H](CCC(=O)O)C(=O)N[C@@H](CCCCNC(=O)COCCOCCNC(=O)COCCOCCNC(=O)CC[C@H](NC(=O)CCCCCCCCCCCCCCCCCCC(=O)O)C(=O)O)C(=O)N[C@@H](CCCCN)C(=O)N[C@@H](C)C(=O)N[C@@H](C)C(=O)N[C@@H](CCC(N)=O)C(=O)N[C@@H](CCC(=O)O)C(=O)N[C@@H](Cc1ccccc1)C(=O)N[C@H](C(=O)N[C@@H](CCC(=O)O)C(=O)N[C@@H](Cc1c[nH]c2ccccc12)C(=O)N[C@@H](CC(C)C)C(=O)N[C@@H](CC(C)C)C(=O)N[C@@H](C)C(=O)N[C@H](CCC(=O)O)C(=O)NCC(=O)N1CCC[C@H]1C(=O)N[C@@H](CO)C(=O)N[C@@H](CO)C(=O)NCC(=O)N[C@@H](C)C(=O)N1CCC[C@H]1C(=O)N1CCC[C@H]1C(=O)N1CCC[C@H]1C(=O)N[C@@H](CO)C(N)=O)C(C)C [Compound 0151] | 0.004 | 0.055 | – | – | – | – | –
CC(C)C[C@H](NC(=O)[C@H](CC(C)C)NC(=O)[C@H](Cc1c[nH]c2ccccc12)NC(=O)[C@H](CCC(=O)O)NC(=O)[C@@H](NC(=O)[C@H](Cc1ccccc1)NC(=O)[C@H](CCC(=O)O)NC(=O)[C@H](CCC(N)=O)NC(=O)[C@H](C)NC(=O)[C@H](C)NC(=O)[C@H](CCCCN)NC(=O)[C@H](CCCCNC(=O)COCCOCCNC(=O)COCCOCCNC(=O)CC[C@H](NC(=O)CCCCCCCCCCCCCCCCCCC(=O)O)C(=O)O)NC(=O)[C@H](CCC(=O)O)NC(=O)[C@H](CC(C)C)NC(=O)[C@H](Cc1ccc(O)cc1)NC(=O)[C@](C)(CCCCN)NC(=O)[C@H](CO)NC(=O)[C@H](Cc1ccc(O)cc1)NC(=O)[C@H](CC(=O)O)NC(=O)[C@H](CO)NC(=O)[C@@H](NC(=O)[C@H](Cc1ccccc1)NC(=O)[C@@H](NC(=O)CNC(=O)[C@H](Cc1c[nH]cn1)NC(=O)C(C)(C)NC(=O)[C@@H](N)Cc1c[nH]cn1)[C@@H](C)O)[C@@H](C)O)C(C)C)C(=O)N[C@@H](C)C(=O)NCC(=O)NCC(=O)N1CCC[C@H]1C(=O)N[C@@H](CO)C(=O)N[C@@H](CO)C(=O)NCC(=O)N[C@@H](C)C(=O)N1CCC[C@H]1C(=O)N1CCC[C@H]1C(=O)N1CCC[C@H]1C(=O)N[C@@H](CO)C(N)=O [Compound 0104] (H-H[Aib]HGTFTSDYS[αMeK]YLEK([AEEA-AEEA-γGlu-C20 diacid])KAAQEFVEWLLAGGPSSGAPPPS-NH2) | – | – | 30.9 | 4.22 | 0.108 | 690 | 0.037
CC(C)C[C@H](NC(=O)[C@H](CC(C)C)NC(=O)[C@H](Cc1c[nH]c2ccccc12)NC(=O)[C@H](CCC(=O)O)NC(=O)[C@@H](NC(=O)[C@H](Cc1ccccc1)NC(=O)[C@H](CCC(=O)O)NC(=O)[C@H](CCC(N)=O)NC(=O)[C@H](C)NC(=O)[C@H](C)NC(=O)[C@H](CCCCN)NC(=O)[C@H](CCCCNC(=O)COCCOCCNC(=O)COCCOCCNC(=O)CC[C@H](NC(=O)CCCCCCCCCCCCCCCCCCC(=O)O)C(=O)O)NC(=O)[C@H](CCC(=O)O)NC(=O)[C@H](CC(C)C)NC(=O)[C@H](CC(C)C)NC(=O)[C@](C)(CCCCN)NC(=O)[C@H](CO)NC(=O)[C@H](Cc1ccc(O)cc1)NC(=O)[C@H](CC(=O)O)NC(=O)[C@H](CO)NC(=O)[C@@H](NC(=O)[C@H](Cc1ccccc1)NC(=O)[C@@H](NC(=O)CNC(=O)[C@H](Cc1c[nH]cn1)NC(=O)C(C)(C)NC(=O)[C@@H](N)Cc1c[nH]cn1)[C@@H](C)O)[C@@H](C)O)C(C)C)C(=O)N[C@@H](C)C(=O)NCC(=O)NCC(=O)N1CCC[C@H]1C(=O)N[C@@H](CO)C(=O)N[C@@H](CO)C(=O)NCC(=O)N[C@@H](C)C(=O)N1CCC[C@H]1C(=O)N1CCC[C@H]1C(=O)N1CCC[C@H]1C(=O)N[C@@H](CO)C(N)=O [Compound 0112] (H-H[Aib]HGTFTSDYS[αMeK]LLEK([AEEA-AEEA-γGlu-C20 diacid])KAAQEFVEWLLAGGPSSGAPPPS-NH2) | 0.005 | 0.087 | – | – | – | – | –
